The values below are quoted from earlier work in patent publication US11559495B1, “Icariin nano-pharmaceutical formulation” (King Abdulaziz University, priority 2022, dated 2023).

Structures are written as SMILES.

Data set [1] deals with T1, MAO-B (Homo sapiens, UniProt P27338).
T1 sequence (P27338 1-520): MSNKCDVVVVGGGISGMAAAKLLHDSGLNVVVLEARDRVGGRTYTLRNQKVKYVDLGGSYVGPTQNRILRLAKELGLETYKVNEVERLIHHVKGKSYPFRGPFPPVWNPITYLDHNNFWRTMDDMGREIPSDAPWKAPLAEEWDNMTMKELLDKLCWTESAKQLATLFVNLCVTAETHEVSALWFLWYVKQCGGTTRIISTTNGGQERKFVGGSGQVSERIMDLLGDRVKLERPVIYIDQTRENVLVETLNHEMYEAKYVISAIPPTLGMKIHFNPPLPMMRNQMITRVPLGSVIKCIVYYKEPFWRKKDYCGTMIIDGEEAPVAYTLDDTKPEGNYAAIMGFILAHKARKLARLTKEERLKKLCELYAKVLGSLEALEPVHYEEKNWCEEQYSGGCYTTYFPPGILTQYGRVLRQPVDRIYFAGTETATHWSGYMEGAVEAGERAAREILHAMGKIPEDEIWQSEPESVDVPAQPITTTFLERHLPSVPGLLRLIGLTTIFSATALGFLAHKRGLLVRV

The target of data set [2] is cGMP-specific phosphodiesterase type 5 (PDE5) (Homo sapiens, UniProt O76074).
In data set [3] the target is T2, MAO-A (Homo sapiens, UniProt P21397).
T2 sequence (P21397 1-527): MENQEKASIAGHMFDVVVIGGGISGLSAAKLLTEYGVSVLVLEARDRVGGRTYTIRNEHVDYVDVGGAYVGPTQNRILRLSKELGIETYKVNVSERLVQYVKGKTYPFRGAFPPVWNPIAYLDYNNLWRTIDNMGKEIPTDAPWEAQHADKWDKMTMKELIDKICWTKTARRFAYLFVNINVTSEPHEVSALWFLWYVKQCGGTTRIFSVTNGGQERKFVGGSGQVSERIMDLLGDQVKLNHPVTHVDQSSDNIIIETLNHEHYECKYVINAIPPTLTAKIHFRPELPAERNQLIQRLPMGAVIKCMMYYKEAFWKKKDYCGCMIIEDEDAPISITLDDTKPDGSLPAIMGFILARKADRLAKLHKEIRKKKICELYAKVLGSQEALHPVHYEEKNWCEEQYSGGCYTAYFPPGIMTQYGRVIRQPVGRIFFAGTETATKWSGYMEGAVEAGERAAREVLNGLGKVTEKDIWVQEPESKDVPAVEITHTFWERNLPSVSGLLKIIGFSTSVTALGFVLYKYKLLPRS

For `COc1ccc(-c2oc3c(CC=C(C)C)c(O[C@@H]4O[C@H](CO)[C@@H](O)[C@H](O)[C@H]4O)cc(O)c3c(=O)c2O[C@@H]2O[C@@H](C)[C@H](O)[C@@H](O)[C@H]2O)cc1` [ICA, 7-(β-D-Glucopyranosyloxy)-5-hydroxy-4′-methoxy-8-(3-methylbut-2-en-1-yl)-3-(α-L-rhamnopyranosyloxy)flavone], the MAO-B activity inhibition entry in data set [1] is given as “inhibited”. In data set [2], the PDE5 inhibition entry is on record as “inhibitor”. For the same molecule, the MAO-A activity inhibition result in data set [3] is “inhibited”.
